Test systems include A498 renal; BT-549 breast; EKVX NSCLC; HT29 colon; KM12 colon; OVCAR-4 ovarian; SNB-19 CNS; SNB-75 CNS; TK-10 renal; SF-539 CNS.
What all share (experiment): NCI anticancer screen, dose series, 48 h

The structures appear in SMILES notation. Values joined by “and” are separate entries in the source; they are usually repeats but may differ in a detail not shown here. Equal entries are not always repeated.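 Each compound was tested at five concentrations against cells in 96-well plates for 48 hours. GI50: concentration for 50% inhibition of growth. At the TGI there is no net growth.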

Turning to `Ic1ccc(Nc2nc3nonc3nc2Nc2ccc(I)cc2)cc1`, the GI50 in the experiment with A498 renal was 0.0829 µM; with BT-549 breast it was 0.301 µM; in the experiment with EKVX NSCLC, 0.245 µM; in the experiment with HT29 colon, 0.265 µM; in the experiment with KM12 colon, 0.293 µM; in the experiment on OVCAR-4 ovarian, 0.246 µM. The GI50 with SNB-19 CNS is 0.324 µM; in the experiment with SNB-75 CNS it was 0.227 µM; with TK-10 renal it was 0.321 µM. The TGI in the experiment on A498 renal is 0.418 µM; in the experiment with BT-549 breast, 1.36 µM; with EKVX NSCLC, > 100 µM; with HT29 colon, > 100 µM; in the experiment with KM12 colon, > 100 µM; in the experiment with OVCAR-4 ovarian it was > 100 µM. Also, the TGI in the experiment with SNB-19 CNS, in the experiment with SNB-75 CNS and in the experiment with TK-10 renal was > 100 µM throughout.

As to `CC(SC(C)C(=O)N/N=C/c1cccc(Cl)c1)C(=O)N/N=C\c1cccc(Cl)c1` (centres undefined), the GI50 was 14.6 µM in the experiment with A498 renal; 18.2 µM with BT-549 breast; 13.3 µM in the experiment on EKVX NSCLC; 11.6 µM with HT29 colon; 11.4 µM with KM12 colon; 1.63 µM with OVCAR-4 ovarian. In addition, the GI50 with SF-539 CNS is 16.3 µM; in the experiment with SNB-19 CNS it was 21.7 µM; in the experiment on SNB-75 CNS it was 4.28 µM; in the experiment with TK-10 renal, 4.66 µM. Besides, the TGI in the experiment with A498 renal amounted to 32.2 µM; in the experiment on BT-549 breast, 41.6 µM; in the experiment with EKVX NSCLC, 59.7 µM; with HT29 colon, 32.1 µM; in the experiment with KM12 colon it was 30.3 µM; in the experiment with OVCAR-4 ovarian, 3.35 µM. For the same compound, the TGI in the experiment on SF-539 CNS is 44.2 µM; with SNB-19 CNS it was > 100 µM; in the experiment on SNB-75 CNS, 19.5 µM; in the experiment with TK-10 renal, 18.1 µM.

Regarding `O=c1n(CC2CO2)c(=O)n(CC2CO2)c(=O)n1CC1CO1` (centres undefined), the GI50 is 12.2 µM in the experiment with A498 renal; 13.6 µM in the experiment on BT-549 breast; 24.4 µM in the experiment with HT29 colon; 21.3 µM in the experiment on KM12 colon; 25.9 µM and 23 µM in the experiment on OVCAR-4 ovarian; 2.92 µM in the experiment on SF-539 CNS. Besides, the GI50 in the experiment with SNB-19 CNS was 22 µM and 6.55 µM; with SNB-75 CNS, 6.8 µM and 21.1 µM; in the experiment with TK-10 renal, 21.1 µM. Further, the TGI in the experiment with A498 renal is 83.9 µM and 26.5 µM; in the experiment with BT-549 breast it was 67 µM and > 100 µM; in the experiment with EKVX NSCLC, 175 µM; with HT29 colon it was 62.3 µM and > 100 µM; in the experiment on KM12 colon, 112 µM and > 100 µM; in the experiment with OVCAR-4 ovarian, 112 µM and > 100 µM. The TGI in the experiment with SF-539 CNS was 41.6 µM and 24.7 µM; with SNB-19 CNS, 98.3 µM and > 100 µM; in the experiment with SNB-75 CNS, 89.8 µM and > 100 µM; in the experiment on TK-10 renal, 121 µM and > 100 µM.

For the compound `NC(=NCCCOc1ccc(Cl)cc1)Nc1ccc(C(F)(F)F)cc1`, the GI50 is 2.08 µM in the experiment on A498 renal; 2.32 µM in the experiment with BT-549 breast; 2.51 µM with EKVX NSCLC; 1.88 µM in the experiment with HT29 colon; 2.15 µM in the experiment with OVCAR-4 ovarian; 2.79 µM in the experiment with SNB-19 CNS. Also, the GI50 with SNB-75 CNS was 0.914 µM; in the experiment on TK-10 renal, 1.73 µM. In addition, the TGI in the experiment with A498 renal came out at 6.08 µM; in the experiment on BT-549 breast it was 6.31 µM; in the experiment with EKVX NSCLC, 8.65 µM; in the experiment on HT29 colon, 5.55 µM; in the experiment on OVCAR-4 ovarian, 8.01 µM; in the experiment with SNB-19 CNS, 19.5 µM. Also, the TGI came out at 7.67 µM in the experiment with SNB-75 CNS and 3.66 µM in the experiment on TK-10 renal.

Regarding `C[As](C)SC1OC(CO)C(O)C1O` (centres undefined), the GI50 is 0.516 µM in the experiment with A498 renal; 0.628 µM in the experiment on BT-549 breast; 0.877 µM with EKVX NSCLC; 0.668 µM with HT29 colon; 2.4 µM in the experiment with KM12 colon; 1.69 µM in the experiment on OVCAR-4 ovarian. Moreover, the GI50 is 0.222 µM in the experiment with SF-539 CNS, 8.68 µM in the experiment with SNB-19 CNS, 0.912 µM in the experiment on SNB-75 CNS and 0.174 µM in the experiment on TK-10 renal. In addition, the TGI in the experiment on A498 renal was 3.62 µM; in the experiment on BT-549 breast it was 3.21 µM; in the experiment with EKVX NSCLC, 10.4 µM; with HT29 colon, > 100 µM; in the experiment with KM12 colon it was 13.6 µM; in the experiment with OVCAR-4 ovarian, 16.3 µM. The TGI in the experiment with SF-539 CNS was 0.749 µM; with SNB-19 CNS it was > 57.6 µM; in the experiment with SNB-75 CNS it was 2.62 µM; in the experiment with TK-10 renal, 0.816 µM.

As for `Cc1nc2ccccc2c(=O)n1NC(=O)c1ccc(CS)cc1`, the TGI with A498 renal is 40.8 µM; with BT-549 breast, 46.3 µM; with EKVX NSCLC it was 66.2 µM; in the experiment with HT29 colon, > 100 µM; in the experiment with KM12 colon it was 63.7 µM; in the experiment with OVCAR-4 ovarian it was > 100 µM. Further, the TGI in the experiment with SF-539 CNS was 26.6 µM; in the experiment on SNB-19 CNS, > 100 µM; with SNB-75 CNS, > 100 µM.

For the compound `O=C(CCCn1ccnc1[N+](=O)[O-])NCCn1cncc1[N+](=O)[O-]`, the TGI in the experiment with A498 renal, with BT-549 breast, in the experiment with EKVX NSCLC, in the experiment with HT29 colon, with KM12 colon and in the experiment with OVCAR-4 ovarian was > 100 µM in each case. Besides, the TGI in the experiment on SF-539 CNS, in the experiment with SNB-75 CNS and with TK-10 renal was > 100 µM throughout.

As to `Clc1ccc2c(NCCCNc3nccc(Nc4ccc(Br)cc4)n3)ccnc2c1`, the GI50 in the experiment on A498 renal is 1.22 µM; in the experiment on BT-549 breast, 1.68 µM; in the experiment with HT29 colon, 1.26 µM; in the experiment with KM12 colon, 1.82 µM; with OVCAR-4 ovarian, 1.39 µM; in the experiment on SF-539 CNS it was 1.81 µM. Besides, the GI50 in the experiment on SNB-19 CNS was 1.75 µM; in the experiment with SNB-75 CNS, 1.3 µM; in the experiment on TK-10 renal it was 1.83 µM. Further, the TGI was found to be 2.48 µM in the experiment on A498 renal; 3.4 µM in the experiment with BT-549 breast; 2.67 µM with HT29 colon; 3.36 µM in the experiment on KM12 colon; 2.75 µM in the experiment with OVCAR-4 ovarian; 3.37 µM in the experiment on SF-539 CNS. The figures for the TGI with SNB-19 CNS, in the experiment with SNB-75 CNS and in the experiment on TK-10 renal were 3.32 µM, 2.57 µM and 3.26 µM, respectively.
